In ChEMBL document CHEMBL2074027, “Polyaromatic alkaloids from marine invertebrates as cytotoxic compounds and inhibitors of multidrug resistance caused by P-glycoprotein” (Br J Cancer, 1996) one finds Activity data, which are given here for 1 compound.

Molecules are shown by their SMILES.

In the data set the target is ATP-dependent translocase ABCB1 (Homo sapiens, UniProt P08183). The data set is described as follows: TP_TRANSPORTER: inhibition of Rhodamine 123 efflux (R123: 20 uM, Lamellarin I: 10 uM) in Lo Vo/Dx cells. Type of data set: functional, cell-based.
Sequence of ATP-dependent translocase ABCB1 (P08183 whole entry): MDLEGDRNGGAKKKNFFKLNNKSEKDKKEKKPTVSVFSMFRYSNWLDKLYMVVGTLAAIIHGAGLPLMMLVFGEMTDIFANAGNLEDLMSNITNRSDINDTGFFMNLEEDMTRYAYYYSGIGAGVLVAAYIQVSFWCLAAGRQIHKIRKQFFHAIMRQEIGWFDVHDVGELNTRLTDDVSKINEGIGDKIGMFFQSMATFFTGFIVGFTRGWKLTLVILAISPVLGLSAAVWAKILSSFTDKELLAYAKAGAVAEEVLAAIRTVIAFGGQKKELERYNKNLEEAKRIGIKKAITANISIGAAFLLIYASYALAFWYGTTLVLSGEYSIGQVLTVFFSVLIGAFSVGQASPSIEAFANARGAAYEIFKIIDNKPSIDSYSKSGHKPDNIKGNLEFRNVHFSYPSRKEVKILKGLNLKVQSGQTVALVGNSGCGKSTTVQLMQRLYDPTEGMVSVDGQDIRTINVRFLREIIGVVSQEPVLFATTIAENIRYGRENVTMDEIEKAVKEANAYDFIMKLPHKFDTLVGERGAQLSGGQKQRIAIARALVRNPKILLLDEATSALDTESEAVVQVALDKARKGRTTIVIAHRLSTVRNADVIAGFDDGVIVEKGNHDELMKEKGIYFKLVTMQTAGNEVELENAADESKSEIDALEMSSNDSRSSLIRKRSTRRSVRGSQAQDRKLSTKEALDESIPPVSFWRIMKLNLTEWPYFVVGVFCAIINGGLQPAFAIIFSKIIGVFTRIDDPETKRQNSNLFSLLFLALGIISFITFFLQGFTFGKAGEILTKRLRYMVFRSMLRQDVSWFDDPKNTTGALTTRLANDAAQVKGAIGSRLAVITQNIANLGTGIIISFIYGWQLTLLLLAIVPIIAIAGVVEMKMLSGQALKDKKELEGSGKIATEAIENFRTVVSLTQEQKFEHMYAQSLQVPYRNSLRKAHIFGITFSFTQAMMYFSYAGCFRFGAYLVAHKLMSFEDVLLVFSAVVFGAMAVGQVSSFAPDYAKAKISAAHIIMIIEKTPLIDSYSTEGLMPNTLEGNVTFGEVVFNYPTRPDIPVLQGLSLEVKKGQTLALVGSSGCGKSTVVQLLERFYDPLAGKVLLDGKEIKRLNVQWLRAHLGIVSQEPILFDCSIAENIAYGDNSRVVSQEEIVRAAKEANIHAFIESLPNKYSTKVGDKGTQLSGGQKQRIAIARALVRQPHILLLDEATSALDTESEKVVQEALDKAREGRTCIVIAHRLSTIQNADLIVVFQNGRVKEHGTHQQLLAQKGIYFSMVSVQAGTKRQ

`COc1cc2c(cc1O)OCc1c-2c(-c2ccc(OC)c(OC)c2)c2n1CCc1c-2cc(OC)c(OC)c1OC` [LAMELLARIN I]: the Activity result is “inhibitor [+]”.
